Data: PubChem BioAssay AID611 (The Scripps Research Institute Molecular Screening Center, 2007)
Calls of active or inactive are those of the source.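 Rule for the calls: active = IC50 at or below 10 micromolar, estimated by hand when no curve fit or under half inhibition at top dose; inactive = IC50 above 10 micromolar.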

Molecular target: Steroidogenic factor 1 (Homo sapiens) (UniProt Q13285)
Assay: inhibition of SF-1 LBD-driven luciferase – cell-based, CHO-K1, Gal4-SF-1 LBD, luciferase luminescence, counter-screen for RORA inhibitor project, dose response (AID 611)
Conditions: CHO-K1 Gal4-SF-1 LBD luciferase reporter

Chain of Steroidogenic factor 1 (Homo sapiens) (Q13285 whole entry, looked up, the tested form may be a part): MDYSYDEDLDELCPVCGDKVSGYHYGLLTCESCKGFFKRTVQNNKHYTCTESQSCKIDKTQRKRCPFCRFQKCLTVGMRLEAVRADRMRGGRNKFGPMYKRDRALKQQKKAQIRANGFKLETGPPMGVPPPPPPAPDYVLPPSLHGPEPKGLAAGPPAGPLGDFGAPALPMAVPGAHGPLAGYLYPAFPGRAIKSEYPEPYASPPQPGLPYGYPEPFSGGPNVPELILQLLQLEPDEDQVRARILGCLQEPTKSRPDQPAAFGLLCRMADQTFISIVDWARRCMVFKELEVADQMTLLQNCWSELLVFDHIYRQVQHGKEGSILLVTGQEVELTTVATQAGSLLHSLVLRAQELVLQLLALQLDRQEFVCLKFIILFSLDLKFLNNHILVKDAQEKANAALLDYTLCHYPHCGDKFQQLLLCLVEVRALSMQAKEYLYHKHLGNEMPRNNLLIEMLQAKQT

| Compound | IC50 |
| --- | --- |
| Cc1ccc(C(=O)/C=C/Nc2ccccn2)cc1 | 1500 nM |
| Cn1nc(CC(=O)Nc2ccc(N3CCN(C(=O)OC(C)(C)C)CC3)cc2)c2ccccc2c1=O | 2550 nM |
| CC(=O)CC1OC(=O)C(Br)=C1NCc1ccccc1 (centres undefined) | inactive |
| O=S(=O)(c1ccc2c(c1)C(=NO)c1cc(S(=O)(=O)N3CCCCC3)ccc1-2)N1CCCCC1 | 2140 nM |
| O=C(/C=C\Nc1ccc2c(c1)OCO2)c1ccccn1 | 1500 nM |
| O=C(O)CCCCCN1C(=O)CSC1=S | > 99000 nM (inactive) |
| COc1cc(/C=N/O)ccc1OCc1ccc(C(=O)O)cc1 | 675 nM |
| COC(=O)C1=C(CN2CCCc3ccccc32)NC(=O)NC1c1ccc(F)cc1 (centres undefined) | 6660 nM |
| O=C(/C=C\Nc1ccccn1)c1ccc(Cl)cc1 | 4880 nM |
